Consider 14 molecules from patent publication US9206161B2, “Bridged bicyclic heteroaryl substituted triazoles useful as Axl inhibitors” (Rigel Pharmaceuticals, Inc., priority 2008, dated 2015).

This assay addresses T1, Axl (Homo sapiens, UniProt P30530).
T1 construct: endogenous in cells; host or cells: HeLa cells
T1 sequence (P30530 26-894): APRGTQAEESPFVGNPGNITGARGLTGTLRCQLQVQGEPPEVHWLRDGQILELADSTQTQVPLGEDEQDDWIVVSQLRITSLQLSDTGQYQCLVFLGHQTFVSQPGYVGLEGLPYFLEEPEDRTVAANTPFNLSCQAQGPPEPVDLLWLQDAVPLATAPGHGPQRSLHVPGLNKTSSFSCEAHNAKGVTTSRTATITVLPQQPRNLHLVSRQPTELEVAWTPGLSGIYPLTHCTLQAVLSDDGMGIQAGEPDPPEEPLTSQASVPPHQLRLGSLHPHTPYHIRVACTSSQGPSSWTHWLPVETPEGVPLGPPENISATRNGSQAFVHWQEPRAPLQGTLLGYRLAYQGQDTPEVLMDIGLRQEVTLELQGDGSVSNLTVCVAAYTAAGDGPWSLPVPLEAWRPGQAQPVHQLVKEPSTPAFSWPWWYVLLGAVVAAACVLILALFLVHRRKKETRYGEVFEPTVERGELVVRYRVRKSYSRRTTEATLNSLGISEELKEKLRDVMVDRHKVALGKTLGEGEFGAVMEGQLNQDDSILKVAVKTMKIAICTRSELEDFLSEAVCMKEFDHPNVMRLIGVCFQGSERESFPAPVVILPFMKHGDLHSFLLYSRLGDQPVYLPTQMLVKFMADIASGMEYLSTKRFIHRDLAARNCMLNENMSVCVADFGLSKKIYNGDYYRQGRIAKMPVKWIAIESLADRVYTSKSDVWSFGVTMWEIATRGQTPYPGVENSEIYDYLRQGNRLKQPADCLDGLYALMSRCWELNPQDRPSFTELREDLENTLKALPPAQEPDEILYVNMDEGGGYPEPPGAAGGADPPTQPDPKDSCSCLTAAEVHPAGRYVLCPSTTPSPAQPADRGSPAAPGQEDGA
As to the kind of experiment: Phospho-Akt in-cell Western assay. As to conditions: Hela cells, Axl antibody cross-linking stimulation, phospho-Akt readout. The format is cell-based. The method, then:
Phospho-Akt in-Cell Western Assay
The compounds of the invention were tested in the following assay for their ability to inhibit Axl activity.
• Cell culture plate: 96 well assay plate (Corning 3610), white, clear bottom, tissue-culture treated. • Cells: Hela cells. • Starvation medium: For Axl stimulation: 0.5% FCS (fetal calf serum) in DMEM, plus Axl/Fc (extracellular domain of AXL fused to immunoglobulin Fc region) (R&D, 154-AL) 500 ng/mL. • For EGF (epidermal growth factor) stimulation: 0.5% FCS in DMEM (Dulbecco's modified Eagles medium). • Poly-L-Lysine 0.01% solution (the working solution): 10 μg/ml, dilute In PBS (phosphate buffered saline). • Axl antibody cross-linking: • 1st: Mouse anti-Axl (R&D, MAB154). • 2nd: Biotin-SP-conjugated AffiniPure goat anti-mouse IgG (H+L) (Jackson ImmunoResearch #115-065-003). • Fixing buffer: 4% formaldehyde in PBS. • Wash buffer: 0.1% TritonX-100 in PBS. • Quenching buffer: 3% H2O2, 0.1% Azide in wash buffer, Azide and hydrogen peroxide (H2O2) are added fresh. • Blocking buffer: 5% BSA in TBST (tris buffered saline plus 0.1% Tween 20). • Primary antibody: Rabbit anti-human Phospho-Akt antibody (Cell Signaling 9271): 1×250 diluted in blocking buffer. • Secondary antibody: HRP (horse radish peroxidase)-conjugated Goat anti-Rabbit secondary, stock solution: Jackson ImmunoResearch (Goat anti-Rabbit HRP, #111-035-144) 1:1 diluted in glycerol, store at −20° C. The working solution: 1×2000 dilution of stock in blocking buffer. • Chemiluminescent working solution (Pierce, 37030): SuperSignal ELISA (enzyme linked immunosorbant assay) Pico Chemiluminescent substrate. • Crystal Violet solution: Stock: 2.5% Crystal violet in methanol, filtered and kept at ambient temperature. The working solution: dilute the stock 1:20 with PBS immediately before use. • 10% SDS: working solution: 5% SDS (sodium dodecylsulfate), diluted in PBS Methods: Day 1:
A 96 well TC (tissue culture treated) plate was coated with 10 μg/mL poly-L-Lysine at 37° C. for 30 min, washed twice with PBS, and air-dried for 5 minutes before cells were added. Hela cells were seeded at 10,000 cells/well and the cells were starved in 100 μL starvation medium containing Axl/Fc for 24 hrs.
The cells were pre-treated with test compounds by adding 100 μL of 2× test compound to the starvation medium on the cells. The cells were incubated at 37° C. for 1 hr before stimulation.
The cells were stimulated by Axl-antibody cross-linking as follows: A 5×1st/2nd Axl antibody mixture was made (37.5 μg/mL 1st/100 μg/mL 2nd) in starvation medium and nutated at 4° C. with thorough mixing for 1-2 hours for clustering. The resulting mix was warmed to 37° C. 50 μL of 5× Axl 1st/2nd of antibody cluster was added to the cells and the cells were incubated at 37° C. for 5 min.
After 5 minutes stimulation, the plate was flicked to remove medium and the plate was tapped onto paper towels. Formaldehyde (4.0% in PBS, 100 μL) was added to fix the cells and the cells were incubated at ambient temperature for 20 min without shaking.
The cells were washed with a plate washer buffer to remove the formaldehyde solution. The plate was flicked to removed excess wash buffer and tapped onto paper towels. Quenching buffer (100 μL) was added to each well and the cells were incubated at ambient temperature for 20 minutes without shaking.
The cells were washed with a plate washer buffer to remove the quenching buffer. Blocking buffer (100 μL) was added and the cells were incubated at ambient temperature for at least an hour with gentle shaking.
The cells were washed with a plate washer buffer and diluted primary antibody (50 μL) was added to each well (blocking buffer was added to the negative control wells instead). The plates were incubated overnight at 4° C. with gentle shaking.
The wash buffer was removed, diluted secondary antibody (100 μL) was added, and the cells were incubated at ambient temperature for 1 hour with gentle shaking. […]

The structures appear in SMILES notation.

The term IC50 denotes the concentration at which inhibition is half-maximal. Molecule `Nc1nc(Nc2cnc3c(c2)CC(N)CC3)nn1-c1cc(-c2ccccc2)c2c(n1)C1CCN2CC1` (centres unmarked) [Compound 1, 1-(1,4-ethano-8-phenyl-1,2,3,4-tetrahydro-1,5-naphthyridin-6-yl)-N^3-(6-amino-5,6,7,8-tetrahydroquinoline-3-yl)-1H-1,2,4-triazole-3,5-diamine] had an IC50 (Table 1, formula (Ia)) of less than 1000 nM.

For the molecule `Nc1nc(Nc2cnc3c(c2)CNCC3)nn1-c1cc(-c2ccccc2)c2c(n1)C1CCN2CC1` [Compound 2, 1-(1,4-ethano-8-phenyl-1,2,3,4-tetrahydro-1,5-naphthyridin-6-yl)-N^3-(5,6,7,8-tetrahydro-1,6-naphthyridine-3-yl)-1H-1,2,4-triazole-3,5-diamine], the IC50 (Table 2, formula (Ib)) was less than 1000 nM. As to `CN(C)CC(=O)NC1CCc2ncc(Nc3nc(N)n(-c4cc(-c5ccccc5)c5c(n4)C4CCN5CC4)n3)cc2C1` (centres unmarked) [Compound 3, 1-(1,4-ethano-8-phenyl-1,2,3,4-tetrahydro-1,5-naphthyridin-6-yl)-N^3-(6-[(((dimethyl)amino)methyl)carbonylamino]-5,6,7,8-tetrahydroquinoline-3-yl)-1H-1,2,4-triazole-3,5-diamine], the IC50 (Table 1, formula (Ia)) was less than 1000 nM. `CN(C)CC(=O)N1CCc2ncc(Nc3nc(N)n(-c4cc(-c5ccccc5)c5c(n4)C4CCN5CC4)n3)cc2C1` [Compound 4, 1-(1,4-ethano-8-phenyl-1,2,3,4-tetrahydro-1,5-naphthyridin-6-yl)-N^3-(6-[((dimethyl)amino)methylcarbonyl]-5,6,7,8-tetrahydro-1,6-naphthyridine-3-yl)-1H-1,2,4-triazole-3,5-diamine] came in with an IC50 (Table 2, formula (Ib)) of less than 1000 nM. Take `Nc1nc(Nc2cnc3c(c2)CC(NC2CCCC2)CC3)nn1-c1cc(-c2ccccc2)c2c(n1)C1CCN2CC1` (centres unmarked) [Compound 5, 1-(1,4-ethano-8-phenyl-1,2,3,4-tetrahydro-1,5-naphthyridin-6-yl)-N^3-(6-(cyclopentylamino)-5,6,7,8-tetrahydroquinoline-3-yl)-1H-1,2,4-triazole-3,5-diamine]: the IC50 (Table 1, formula (Ia)) was less than 1000 nM. In turn, `Nc1nc(Nc2cnc3c(c2)CN(C2CCCC2)CC3)nn1-c1cc(-c2ccccc2)c2c(n1)C1CCN2CC1` [Compound 6, 1-(1,4-ethano-8-phenyl-1,2,3,4-tetrahydro-1,5-naphthyridin-6-yl)-N^3-(6-(cyclopentyl)-5,6,7,8-tetrahydro-1,6-naphthyridine-3-yl)-1H-1,2,4-triazole-3,5-diamine] displayed an IC50 (Table 2, formula (Ib)) of less than 1000 nM. Under “Table 3, formula (II)”, `Nc1nc(Nc2ccc(N3CCC(N4CCCC4)CC3)c(F)c2)nn1-c1cc(-c2ccccc2)c2c(n1)C1CCN(CC1)C2` [Compound 7, 1-(6,9-ethano-4-phenyl-6,7,8,9-tetrahydro-5H-pyrido[3,2-c]azepin-2-yl)-N^3-(4-(4-(pyrrolidin-1-yl)piperidinyl)-3-fluorophenyl)-1H-1,2,4-triazole-3,5-diamine] yielded an IC50 of less than 1000 nM.

For the molecule `Nc1nc(Nc2ccc(N3CCC(N4CCCC4)CC3)c(F)c2)nn1-c1cc(-c2ccc(F)cc2)c2c(n1)C1CCN2CC1` [Compound 8, 1-(1,4-ethano-8-(4-fluorophenyl)-1,2,3,4-tetrahydro-1,5-naphthyridin-6-yl)-N^3-(4-(4-(pyrrolidin-1-yl)piperidinyl)-3-fluorophenyl)-1H-1,2,4-triazole-3,5-diamine], the IC50 (Table 3, formula (II)) is less than 1000 nM. On the same count and under the same terms, to `Nc1nc(Nc2ccc(N3CCC(N4CCCC4)CC3)c(F)c2)nn1-c1cc(-c2cccc(C(F)(F)F)c2)c2c(n1)C1CCN2CC1` [Compound 10, 1-(1,4-ethano-8-(3-trifluoromethylphenyl)-1,2,3,4-tetrahydro-1,5-naphthyridin-6-yl)-N^3-(4-(4-(pyrrolidin-1-yl)piperidinyl)-3-fluorophenyl)-1H-1,2,4-triazole-3,5-diamine] belongs less than 1000 nM; to `COc1cccc(-c2cc(-n3nc(Nc4ccc(N5CCC(N6CCCC6)CC5)c(F)c4)nc3N)nc3c2N2CCC3CC2)c1` [Compound 11, 1-(1,4-ethano-8-(3-methoxyphenyl)-1,2,3,4-tetrahydro-1,5-naphthyridin-6-yl)-N^3-(4-(4-(pyrrolidin-1-yl)piperidinyl)-3-fluorophenyl)-1H-1,2,4-triazole-3,5-diamine], less than 1000 nM.

Take `Cc1ccccc1-c1cc(-n2nc(Nc3ccc(N4CCC(N5CCCC5)CC4)c(F)c3)nc2N)nc2c1N1CCC2CC1` [Compound 12, 1-(1,4-ethano-8-(2-methylphenyl)-1,2,3,4-tetrahydro-1,5-naphthyridin-6-yl)-N^3-(4-(4-(pyrrolidin-1-yl)piperidinyl)-3-fluorophenyl)-1H-1,2,4-triazole-3,5-diamine]: the IC50 (Table 3, formula (II)) is less than 1000 nM. Regarding `Nc1nc(Nc2ccc(N3CCC(N4CCCC4)CC3)c(F)c2)nn1-c1nnc(Cl)c2c1C1CCC2CC1` [Compound 13, 1-(4-chloro-5,8-ethano-5,6,7,8-tetrahydrophthalazine-1-yl)-N^3-(4-(4-(pyrrolidin-1-yl)piperidinyl)-3-fluorophenyl)-1H-1,2,4-triazole-3,5-diamine], for the setting “Table 5, formula (IVa)”, the IC50 is less than 1000 nM. In the case of `Nc1nc(Nc2ccc(N3CCC(N4CCCC4)CC3)c(F)c2)n(-c2nnc(Cl)c3c2C2CCC3CC2)n1` [Compound 14, 1-(4-chloro-5,8-ethano-5,6,7,8-tetrahydrophthalazine-1-yl)-N^5-(4-(4-(pyrrolidin-1-yl)piperidinyl)-3-fluorophenyl)-1H-1,2,4-triazole-3,5-diamine], where the note is “Table 6, formula (IVb)”, the IC50 was 1000 to 10000 nM.

As for `Nc1nc(Nc2ccc(N3CCC(N4CCCC4)CC3)c(F)c2)nn1-c1nnc(-c2ccccc2Cl)c2c1C1CCC2CC1` [Compound 15, 1-(4-(2-chlorophenyl)-5,8-ethano-5,6,7,8-tetrahydrophthalazine-1-yl)-N^3-(4-(4-(pyrrolidin-1-yl)piperidinyl)-3-fluorophenyl)-1H-1,2,4-triazole-3,5-diamine], the IC50 (Table 5, formula (IVa)) was less than 1000 nM.
